Experimental data taken from US20240059738A1, “SWITCHING PEPTIDE AND MULTIPLEX IMMUNOASSAY METHOD USING SAME” (OPTOLANE TECHNOLOGIES INC., priority 2021, published 2024).
pKd: −log10 of the molar value.

test system: Anti-HBsAg antibody(g); test: Antigen-induced release of fluorescently labeled peptide from immobilized antibody (Table 2), HBsAg antigen; format: binding, goat; conditions: anti-HBsAg antibodies from goats, after antigen

Sequence	fluorescence intensity remaining at bottom of plate after antigen (% of before)
VYYCAREPTGTGIYFDVWGK [H2, VYYCA REPTG TGIYF DVWGK]	63.9%
TYLEWYPQKPGQSPKLLIYK [L1, TYLEW YPQKP GQSPK LLIYK]	48.7%
SYWIHWVKQRPGQGLEWIGE [H1, SYWIH WVKQR PGQGL EWIGE]	41.1%
VYYCFQGSHVPFTK [L2, VYYCF QGSHV PFTK]	35.2%

same assay, conditions: anti-HBsAg antibody (goat), HBsAg

Sequence	Bottom (B) of microplate Change (%)	fluorescence intensity Bottom (B) of microplate After antigen binding	fluorescence intensity Bottom (B) of microplate Before antigen binding	fluorescence intensity In solution (S) After antigen binding	fluorescence intensity In solution (S) Before antigen binding
VYYCAREPTGTGIYFDVWGK [H2, VYYCA REPTG TGIYF DVWGK]	−36.1%	18773	29367	9136	1784
TYLEWYPQKPGQSPKLLIYK [L1, TYLEW YPQKP GQSPK LLIYK]	−51.3%	5388	11062	20501	2779
SYWIHWVKQRPGQGLEWIGE [H1, SYWIH WVKQR PGQGL EWIGE]	−58.9%	4618	11225	11453	
VYYCFQGSHVPFTK [L2, VYYCF QGSHV PFTK]	−64.8%	9856	28002	15359	2279

test system: HRP, CRP, HBsAg, and hCG; test: not given; conditions: not given
Experimental: After immobilizing the hepatitis B surface antigen (HBsAg)-antibody detected using the immunoassay of the peptide compounds of Example 1 on a microplate, L1 peptide was added, and 0.04 to 30 μg/ml of the hepatitis B surface antigen was treated.

Sequence	selectivity among the four antigens
TYLEWYPQKPGQSPKLLIYK [L1, TYLEW YPQKP GQSPK LLIYK]	highest selectivity

test system: L2 peptide; test: FRET interaction between H1 and L2 peptides on microplate; format: binding; conditions: with increasing concentration of H1 peptide; FAM/TAMRA labels
Excerpt: (§1) FIG. 4A is diagrams illustrating a method for confirming a specific interaction between L1 and H2 peptides and a specific interaction between L2 and H1 peptides and the measurement results thereof, and FIG. 4B is diagrams for explaining a specific interaction between L1 and H2 peptides and a specific interaction between L2 and H1 peptides analyzed using PyMOL software. Here, at the ends of the L1 and L2 peptides, a first fluorescent label, FAM (λex=488 nm, λem=532 nm) was modified, and at the ends of the H1 and H2 peptides, a second fluorescent label, TAMRA λex=532 nm, λem=570 nm) was modified. Meanwhile, the first peptide (L1 or L2) was immobilized on a parylene-H-coated microplate through a covalent bond between a formyl group of parylene-H and a primary amine group of a lysine residue in the peptide, and the second peptide (H2 or H1) was incubated with the immobilized first peptide (L1 or L2) to allow specific interactions between them.

Sequence	FRET intensity
SYWIHWVKQRPGQGLEWIGE [H1, SYWIH WVKQR PGQGL EWIGE]	increase

test system: Anti-hCG antibody(m); test: Antigen-induced release of fluorescently labeled peptide from immobilized antibody (Table 2), hCG antigen; format: binding; conditions: anti-hCG antibody (mouse)

Sequence	Bottom (B) of microplate Change (%)	In solution (S) Change (%)	fluorescence intensity Bottom (B) of microplate After antigen binding	fluorescence intensity Bottom (B) of microplate Before antigen binding	fluorescence intensity In solution (S) After antigen binding	fluorescence intensity In solution (S) Before antigen binding
VYYCAREPTGTGIYFDVWGK [H2, VYYCA REPTG TGIYF DVWGK]	−88.5%	+416%	23320	23320	8545	1654
TYLEWYPQKPGQSPKLLIYK [L1, TYLEW YPQKP GQSPK LLIYK]	−61.6%	+187%	1777	4630	3580	1248
SYWIHWVKQRPGQGLEWIGE [H1, SYWIH WVKQR PGQGL EWIGE]	−65.6%	+206%	1940	5646	3921	1281
VYYCFQGSHVPFTK [L2, VYYCF QGSHV PFTK]	−90.7%	+456%	3072	33156	9402	1692

test system: rabbit anti-HRP antibodies (Fab region); test: Papain treatment of immobilized antibody with bound fluorescently labeled switching peptide (FIG. 6B); format: binding; conditions: after papain treatment compared to before
Excerpt: FIG. 6A is a schematic diagram illustrating states before and after treatment of the antibody to which the four types of peptides of Example 1 were bound, respectively, with papain, which is a protease, and FIG. 6B is graphs illustrating a fluorescence intensity measured at a bottom (B) of the microplate and in a solution (S) after the papain treatment. In the case of this experiment, after immobilization of the antibodies (rabbit anti-HRP antibodies) on the microplate, binding between the antibody and the switching peptide was induced by treatment with a fluorescently labeled switching peptide, the unbound switching peptide was removed, and then the Fab region was hydrolyzed from the immobilized antibodies by adding papain, which is a protease.
Referring to FIG. 6A, the fluorescence at the bottom (B) of the microplate is expected to decrease after the papain reaction because the fluorescently labeled switching peptides are bound to the Fab region of antibodies, and the fluorescence in the solution is expected to increase because the Fab region to which the switching peptide is bound is hydrolyzed and dissolved into the solution. This prediction is proven to be true from the graphs of FIG. 6B.

Sequence	decrease of fluorescence intensity at the bottom of the microplate	increase of fluorescence intensity in the solution
VYYCAREPTGTGIYFDVWGK [H2, VYYCA REPTG TGIYF DVWGK]	58.7%	2,356%
TYLEWYPQKPGQSPKLLIYK [L1, TYLEW YPQKP GQSPK LLIYK]	84.8%	1,032%
SYWIHWVKQRPGQGLEWIGE [H1, SYWIH WVKQR PGQGL EWIGE]	84.3%	2,184%
VYYCFQGSHVPFTK [L2, VYYCF QGSHV PFTK]	72.5%	2,452%

test system: Anti-HRP antibody(r); test: Antigen-induced release of fluorescently labeled peptide from immobilized antibody (Table 2), HRP antigen; format: binding, rabbit; conditions: anti-HRP antibodies from rabbits, after antigen

Sequence	remaining fluorescence intensity at plate bottom after antigen binding (% of before)
VYYCAREPTGTGIYFDVWGK [H2, VYYCA REPTG TGIYF DVWGK]	14.8%
TYLEWYPQKPGQSPKLLIYK [L1, TYLEW YPQKP GQSPK LLIYK]	12.7%
SYWIHWVKQRPGQGLEWIGE [H1, SYWIH WVKQR PGQGL EWIGE]	12.3%
VYYCFQGSHVPFTK [L2, VYYCF QGSHV PFTK]	25.5%

same assay, conditions: anti-HRP antibody (rabbit), HRP

Sequence	Bottom (B) of microplate Change (%)	fluorescence intensity Bottom (B) of microplate After antigen binding	fluorescence intensity Bottom (B) of microplate Before antigen binding	fluorescence intensity In solution (S) After antigen binding	fluorescence intensity In solution (S) Before antigen binding
VYYCAREPTGTGIYFDVWGK [H2, VYYCA REPTG TGIYF DVWGK]	−85.2%	1806	122230	18128	2272
TYLEWYPQKPGQSPKLLIYK [L1, TYLEW YPQKP GQSPK LLIYK]	−87.3%	1990	15608	12280	2687
SYWIHWVKQRPGQGLEWIGE [H1, SYWIH WVKQR PGQGL EWIGE]	−87.7%	1451	11840	21965	2596
VYYCFQGSHVPFTK [L2, VYYCF QGSHV PFTK]	−74.5%	3208	12584	16135	2315

test system: hepatitis B surface antigen-antibody; test: Antibody binding properties (fluorescence signal) of switching peptides at pH 6.0 to 8.0; conditions: not given
Experimental: (§2) Regarding the antibody binding properties of the switching peptides at pH 6.0 to 8.0, a net charge of H1 and L2 peptides decreased to 0.5 at pH 6.0 to 7.0 due to a histidine residue with a pKa value of 6.02. In addition, the net charge of the H2 and L2 peptides decreased to 0.5 at pH 7.0 to 8.0 due to a cysteine residue with a pKa value of 8.18. […] Therefore, the immunoassay was performed by selecting an L1 peptide having specific dissociation from hepatitis B surface antigen-antibody binding and stability within a pH range of human serum immunoassay.

Sequence	fluorescence signal in pH range required for immunoassay of HBsAg in human serum
TYLEWYPQKPGQSPKLLIYK [L1, TYLEW YPQKP GQSPK LLIYK]	almost the same fluorescence signal

test system: not listed separately; test: Net charge of switching peptides at pH 6.0 to 8.0; format: physicochemical; conditions: pH 6.0 to 7.0; histidine residue pKa 6.02
Experimental: as §2

Sequence	net charge
SYWIHWVKQRPGQGLEWIGE [H1, SYWIH WVKQR PGQGL EWIGE]	0.5
VYYCFQGSHVPFTK [L2, VYYCF QGSHV PFTK]	0.5

same assay, conditions: pH 7.0 to 8.0; cysteine residue pKa 8.18

Sequence	net charge
VYYCAREPTGTGIYFDVWGK [H2, VYYCA REPTG TGIYF DVWGK]	0.5
VYYCFQGSHVPFTK [L2, VYYCF QGSHV PFTK]	0.5

test system: anti-HRP antibody from a rabbit; test: One-step immunoassay with varying HRP concentration (FIGS. 7A-7C); format: binding; conditions: HRP 0.3 to 100 μM
Excerpt: FIG. 7A is a schematic diagram for explaining an immunoassay method using fluorescently labeled peptide compounds of Example 1, and FIGS. 7B and 7C are graphs illustrating the fluorescence intensities in a solution and at a bottom of the microplate depending on a concentration of the antigen measured by the immunoassay method illustrated in FIG. 7A. In this experiment, an anti-HRP antibody from a rabbit immobilized on a microplate was used as the binding antibody and HRP was used as the antigen.

Sequence	fluorescence intensity in the solution depending on the concentration of the antigen (HRP)
VYYCAREPTGTGIYFDVWGK [H2, VYYCA REPTG TGIYF DVWGK]	increase
TYLEWYPQKPGQSPKLLIYK [L1, TYLEW YPQKP GQSPK LLIYK]	increase
SYWIHWVKQRPGQGLEWIGE [H1, SYWIH WVKQR PGQGL EWIGE]	increase
VYYCFQGSHVPFTK [L2, VYYCF QGSHV PFTK]	increase

same assay, conditions: HRP 0.3 to 100 μM; estimated; read-out: Equilibrium dissociation constants

Sequence	pKd
VYYCAREPTGTGIYFDVWGK [H2, VYYCA REPTG TGIYF DVWGK]	5.51
TYLEWYPQKPGQSPKLLIYK [L1, TYLEW YPQKP GQSPK LLIYK]	5.48
SYWIHWVKQRPGQGLEWIGE [H1, SYWIH WVKQR PGQGL EWIGE]	5.78
VYYCFQGSHVPFTK [L2, VYYCF QGSHV PFTK]	5.83

test system: H2 peptide; test: FRET interaction between L1 and H2 peptides on microplate; format: binding; conditions: with increasing concentration of L1 peptide; FAM/TAMRA labels
Excerpt: as §1
Referring to FIG. 4A, the interaction between the L1 and H2 peptides was observed by changing the concentration of the L1 peptide, and the FRET intensity increased with increasing the concentration of the L1 peptide.

Sequence	FRET intensity
TYLEWYPQKPGQSPKLLIYK [L1, TYLEW YPQKP GQSPK LLIYK]	increased

test system: Anti-CRP antibody(r); test: Antigen-induced release of fluorescently labeled peptide from immobilized antibody (Table 2), CRP antigen; format: binding; conditions: anti-CRP antibody (rabbit)

Sequence	Bottom (B) of microplate Change (%)	In solution (S) Change (%)	fluorescence intensity Bottom (B) of microplate After antigen binding	fluorescence intensity Bottom (B) of microplate Before antigen binding	fluorescence intensity In solution (S) After antigen binding	fluorescence intensity In solution (S) Before antigen binding
VYYCAREPTGTGIYFDVWGK [H2, VYYCA REPTG TGIYF DVWGK]	−39.5%	+677%	22205	22205	16311	2099
TYLEWYPQKPGQSPKLLIYK [L1, TYLEW YPQKP GQSPK LLIYK]	−48.6%	+778%	3456	6719	6505	741
SYWIHWVKQRPGQGLEWIGE [H1, SYWIH WVKQR PGQGL EWIGE]	−26.8%	+152%	3595	4912	5659	2242
VYYCFQGSHVPFTK [L2, VYYCF QGSHV PFTK]	−44.9%	+883%	11236	20394	32187	3274
